# Patent publication US9958439B2, “Carbohydrate detection” (RICHTER LIFE SCIENCE DEVELOPMENT AB, priority 2012, dated 2018)
# Like-named read-outs stand apart in the source and are kept apart here.
# How the values were obtained:
# [1] = for RFU change (Correlation analysis): probe-specific excitation λ, emission 545 nm
# Outline: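 LCO probes at 3 μM mixed with serial two-fold dilutions of carbohydrate in dH2O (10–0.039 or 5–0.019 mg/ml, depending on carbohydrate), in triplicate. Excitation scanned 300–500 nm or fixed per probe (λmax or lowest background), emission at 545 nm. Detection taken as reproducible λmax/RFU shift vs no-carbohydrate control; RFU regressed linearly on concentration.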
# [2] = Outline: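 LCO probes at 3 μM mixed with serial two-fold carbohydrate dilutions in water (10–0.039 or 5–0.019 mg/ml), run in triplicate. Excitation scanned 300–500 nm with emission at 545 nm; detection based on reproducible λmax or RFU shift against the no-carbohydrate control, with linear regression of RFU on concentration.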
# [3] = remark: listed apart in the source
# Outline: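 3 μM of each LCO probe was added to serial two-fold carbohydrate dilutions in water (10–0.039 or 5–0.019 mg/ml). Excitation spectra were scanned 300–500 nm with emission at 545 nm, in triplicate. Detection was defined as a reproducible shift in λmax and/or RFU versus negative control, with linear regression of RFU against concentration.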
# [4] = for RFU change (Correlation analysis): probe-specific excitation λ, emission 545 nm; remark: listed apart in the source
# Outline: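 Each LCO probe at 3 μM was added to two-fold serial dilutions of carbohydrate in dH2O (10–0.039 mg/ml for β-1,3-glucan, cellulose, chitin; 5–0.019 mg/ml for the others), run in triplicate. Excitation spectra were scanned 300–500 nm with emission at 545 nm. Detection was a reproducible λmax and/or RFU shift versus negative control, with linear regression of RFU against concentration.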
# [5] = for RFU change (Correlation analysis): probe-specific excitation λ, emission 545 nm; for Gradient Parameters (gradient of regression line) / Linear relationship / Quality of Gradient: linear regression
# Outline: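 LCO probes at 3 μM mixed with serial twofold carbohydrate dilutions in dH2O (10–0.039 or 5–0.019 mg/ml, depending on carbohydrate). Excitation scanned 300–500 nm, emission read at 545 nm; detection defined as reproducible shift in λmax and/or RFU relative to negative control, with linear regression of RFU against concentration.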
# [6] = remark: listed apart in the source
# Outline: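 LCO probes (3 μM) were added to serial two-fold dilutions of carbohydrate suspensions in dH2O, with excitation scanned 300–500 nm and emission at 545 nm. Detection was a reproducible λmax and/or RFU change versus no-carbohydrate control. RFU was regressed linearly against concentration at the λmax or the lowest-background excitation.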
# [7] = Cellulobiose 5-0.019 mg/ml, 3 μM probe, spectral analysis, Excitation 300-500, Emission 545
# [8] = amylose concentration vs RFU, linear regression
# [9] = cellulobiose concentration vs RFU, linear regression
# [10] = glucose concentration vs RFU, linear regression
# [11] = Chondroitin Sulfate A 5-0.019 mg/ml, 3 μM probe, spectral analysis, Excitation 300-500, Emission 545
# [12] = Chondroitin Sulfate A concentration vs RFU, linear regression
# [13] = Chitin 10-[…], 3 μM probe, spectral analysis, Excitation 300-500, Emission 545
# [14] = cellulose concentration vs RFU, linear regression
# [15] = chitin concentration vs RFU, linear regression
# [16] = β-1,3-glucan concentration vs RFU, linear regression
# [17] = Glycogen 5-0.019 mg/ml, 3 μM probe, spectral analysis, Excitation 300-500, Emission 545
# [18] = sodium alginate concentration vs RFU, linear regression
compound,measurement,setting,value
"O=C(Cc1cc(-c2cccs2)sc1-c1ccc(-c2sc(-c3cccs3)cc2CC(=O)N[C@@H](Cc2ccc([O-])cc2)C(=O)[O-])s1)N[C@@H](Cc1ccc([O-])cc1)C(=O)[O-].[Na+].[Na+].[Na+].[Na+] [pHTA-Tyr, penta Hydrogen Thiophene Acetic acid Tyrosine]",RFU change (Correlation analysis),"[1]; Amylose 5-0.019 mg/ml, 3 μM probe",Unclear
same,RFU change (Signal deviation with increasing [Carbohydrate]),"[1]; Amylose 5-0.019 mg/ml, 3 μM probe, spectral analysis, Excitation 300-500, Emission 545",Unclear
same,RFU change (Correlation analysis),"[1]; Cellulobiose 5-0.019 mg/ml, 3 μM probe",Increases
same,RFU change (Signal deviation with increasing [Carbohydrate]),[1]; [7],Increases
same,λmax change,[1]; [7],No change
same,carbohydrate can be detected and/or differentiated by the LCO,"[1]; Cellulobiose, conclusion from change in signal magnitude and/or shift in λmax",can be detected and/or differentiated
same,Gradient Parameters (gradient of regression line),[1]; [8],−133.1 ± 128.5
same,Quality of Gradient,[1]; [8],Horizontal
same,Gradient Parameters (gradient of regression line),[1]; [9],56.7 ± 16
same,Linear relationship,[1]; [9],Significant
same,Quality of Gradient,[1]; [9],Positive
same,Sensitivity,[1]; to amylose,No
same,Sensitivity,[1]; to cellulobiose,Yes
same,RFU change (Correlation analysis),"[2]; Glucose 5-0.019 mg/ml, 3 μM probe, probe-specific excitation λ, emission 545 nm",Increases
same,RFU change (Signal deviation with increasing [Carbohydrate]),"[2]; Glucose 5-0.019 mg/ml, 3 μM probe, spectral analysis, Excitation 300-500, Emission 545",Increases
same,carbohydrate can be detected and/or differentiated by the LCO,"[2]; Glucose, conclusion from change in signal magnitude and/or shift in λmax",can be detected and/or differentiated
same,Gradient Parameters (gradient of regression line),[2]; [10],799.4 ± 95.1
same,Linear relationship,[2]; [10],Significant
same,Quality of Gradient,[2]; [10],Positive
same,Sensitivity,[2]; to glucose,Yes
same,RFU change (Correlation analysis),"[3]; Chondroitin Sulfate A 5-0.019 mg/ml, 3 μM probe, probe-specific excitation λ, emission 545 nm",Increases
same,RFU change (Signal deviation with increasing [Carbohydrate]),[3]; [11],Increases
same,λmax change,[3]; [11],No change
same,Gradient Parameters (gradient of regression line),[3]; [12],163.3 ± 61.5
same,Linear relationship,[3]; [12],Significant
same,Quality of Gradient,[3]; [12],Positive
same,carbohydrate can be detected and/or differentiated by the LCO,"[3]; Chondroitin sulfate A, conclusion from change in signal magnitude and/or shift in λmax",can be detected and/or differentiated
same,Sensitivity,[3]; to Chondroitin Sulfate A,Yes
same,RFU change (Correlation analysis),"[4]; Cellulose 10-[…], 3 μM probe",Unclear
same,RFU change (Signal deviation with increasing [Carbohydrate]),"[4]; Cellulose 10-[…], 3 μM probe, spectral analysis, Excitation 300-500, Emission 545",Unclear
same,RFU change (Correlation analysis),"[4]; Chitin 10-[…], 3 μM probe",Increases
same,RFU change (Signal deviation with increasing [Carbohydrate]),[4]; [13],Increases
same,λmax change,[4]; [13],Redshift
same,carbohydrate can be detected and/or differentiated by the LCO,"[4]; Chitin, conclusion from change in signal magnitude and/or shift in λmax",can be detected and/or differentiated
same,Gradient Parameters (gradient of regression line),[4]; [14],−51.4 ± 45.0
same,Quality of Gradient,[4]; [14],Horizontal
same,Gradient Parameters (gradient of regression line),[4]; [15],972.3 ± 109.7
same,Linear relationship,[4]; [15],Significant
same,Quality of Gradient,[4]; [15],Positive
same,Sensitivity,[4]; to cellulose,No
same,Sensitivity,[4]; to chitin,Yes
same,Sensitivity,"[4]; to β-1,3-glucan",No
same,RFU change (Correlation analysis),"[4]; β-1,3-glucan 10-[…], 3 μM probe",Decrease
same,RFU change (Signal deviation with increasing [Carbohydrate]),"[4]; β-1,3-glucan 10-[…], 3 μM probe, spectral analysis, Excitation 300-500, Emission 545",Decrease
same,Gradient Parameters (gradient of regression line),[4]; [16],−53.2 ± 47.5
same,Quality of Gradient,[4]; [16],Horizontal
same,RFU change (Correlation analysis),"[5]; Glycogen 5-0.019 mg/ml, 3 μM probe",Decreases
same,RFU change (Signal deviation with increasing [Carbohydrate]),[5]; [17],Decreases
same,λmax change,[5]; [17],Redshift
same,carbohydrate can be detected and/or differentiated by the LCO,"[5]; Glycogen, conclusion from change in signal magnitude and/or shift in λmax",can be detected and/or differentiated
same,RFU change (Correlation analysis),"[5]; Heparin 5-0.019 mg/ml, 3 μM probe",Increases
same,RFU change (Signal deviation with increasing [Carbohydrate]),"[5]; Heparin 5-0.019 mg/ml, 3 μM probe, spectral analysis, Excitation 300-500, Emission 545",Increases
same,Gradient Parameters (gradient of regression line),[5]; glycogen concentration vs RFU,−2062 ± 216.6
same,Linear relationship,[5]; glycogen concentration vs RFU,Significant
same,Quality of Gradient,[5]; glycogen concentration vs RFU,Negative
same,Gradient Parameters (gradient of regression line),[5]; heparin concentration vs RFU,74.5 ± 80.7
same,Linear relationship,[5]; heparin concentration vs RFU,Not Significant
same,Quality of Gradient,[5]; heparin concentration vs RFU,Horizontal
same,Sensitivity,[5]; to glycogen,Yes
same,Sensitivity,[5]; to heparin,No
same,RFU change (Correlation analysis),"[6]; Sodium alginate 5-0.019 mg/ml, 3 μM probe, probe-specific excitation λ, emission 545 nm",Unclear
same,RFU change (Signal deviation with increasing [Carbohydrate]),"[6]; Sodium alginate 5-0.019 mg/ml, 3 μM probe, spectral analysis, Excitation 300-500, Emission 545",Increases
same,Gradient Parameters (gradient of regression line),[6]; [18],30.9 ± 175.5
same,Quality of Gradient,[6]; [18],Horizontal
same,Sensitivity,[6]; to sodium alginate,No
